# Measured values from patent US6399628B1, “N-(aryl/heteroaryl) amino acid esters, pharmaceutical compositions comprising same, and methods for inhibiting alpha- amyloid peptide release and/or its synthesis by use of such compounds” (Athena Neurosciences, Inc., priority 1996, dated 2002).
smiles,measurement,value
"CCOC(=O)C(CC)Nc1ccc2ccccc2c1 (stereo not shown) [Example 39, 2-[N-(naphth-2-yl)amino]butanoic acid ethyl ester]",melting point,81 to 83 °C
